Source: US20240254140A1, “COMPOUNDS AND THEIR USE IN THE TREATMENT OF BACTERIAL INFECTION” (Hoffmann-La Roche Inc., priority 2021, published 2024)
Values after ≈ are worked out from the molar mass of the structure shown.

test system: Escherichia coli ATCC 25922; test: Minimal Inhibitory Concentration (MIC) determination, broth microdilution; assay type: cell-based; conditions: ATCC25922; strain Escherichia coli ATCC 25922; broth microdilution per CLSI M07-A10; 18-24 hours at 35±2° C.; lowest concentration for complete growth inhibition
Method: Minimal Inhibitory Concentration (MIC) Determination:
The MIC of antibacterial compounds against multiple species and strains was determined using the broth microdilution method according to M07-A10 Clinical and Laboratory Standards Institute (CLSI) guidelines, using the appropriate broth medium. In short, the compound plates were prepared by dispensing 100 μL of each stock solution in the first well of a 96 well microtiter plate (MTP) at a concentration 100-fold higher than the final concentration desired in broth. Eleven serial 2-fold dilutions of the highest concentration were made in DMSO for new compounds and in water (or appropriate solution) for reference compounds [2]. 1 μL of each well was transferred in a new MTP, which served as the test plate by subsequent inoculation. This bacterial suspension was prepared from strains that were first sub-cultured on agar plates and incubated for 18-24 hours as appropriate. Following incubation, the inoculum was prepared from isolated colonies and adjusted to 0.5 McFarland turbidity standard (1 to 2×10^8 Colony Forming Units (CFU)/mL) in 0.9% saline. The bacterial suspension was then diluted 1:200 in appropriate sterile medium and within 15 minutes 100 μL/well were dispensed. Negative controls (lack of bacterial cells) and growth control wells (lack of compound) were included in all plates. MTPs were incubated for 18-24 hours at 35±2° C. in ambient air. The MIC value of each compound, expressed as μg/mL, was determined as the lowest concentration required for complete growth inhibition (no visible growth). • [1] CLSI (2015) Methods for dilution antimicrobial susceptibility tests for bacteria that grow aerobically; Approved Standard, Tenth Edition. CLSI Document M7-A10 (ISBN 1-56238-987-4). Wayne, PA: Clinical and Laboratory Standards Institute, 19087, USA. • [2] CLSI (2017) Performance Standards for Antimicrobial Susceptibility Testing; Twenty-Fifth Informational Supplement. CLSI Document M100-S27, CLSI, Wayne, Pennsylvania 19087, USA.
Table 1 provides the Minimal Inhibitory Concentrations (MIC) in micrograms per millilitre of the compounds of present invention obtained against the strain Escherichia coli ATCC 25922.

MIC [µg/mL] | SMILES
0.125 (≈ 0.22 µM) | C[C@@H](C(=O)Nc1cc(F)c2c(c1)CC(CN1CCC3(CC1)CN(c1cnc4c(n1)NC(=O)CO4)C(=O)O3)C2)N(C)C (stereo partly drawn) [Example 51, (2S)-2-(Dimethylamino)-N-[7-fluoro-2-[[2-oxo-3-(3-oxo-4H-pyrazino[2,3-b][1,4]oxazin-6-yl)-1-oxa-3,8-diazaspiro[4.5]decan-8-yl]methyl]indan-5-yl]propanamide]
4 (≈ 7.08 µM) | C[C@H](C(=O)Nc1cc(C#N)c2c(c1)CC(O)(CNCCC1CN(c3cnc4c(n3)NC(=O)CO4)C(=O)O1)C2)N(C)C (stereo partly drawn) [Example 34, (2R)-N-[7-cyano-2-hydroxy-2-[[2-[2-oxo-3-(3-oxo-4H-pyrazino[2,3-b][1,4]oxazin-6-yl)oxazolidin-5-yl]ethylamino]methyl]indan-5-yl]-2-(dimethylamino)propanamide]
0.125 (≈ 0.232 µM) | O=C(CN1CCC1)Nc1cc(F)c2c(c1)CC(CNCCC1CN(c3cnc4c(n3)NC(=O)CO4)C(=O)O1)C2 (stereo not shown) [Example 8, 2-(azetidin-1-yl)-N-[7-fluoro-2-[2-[2-oxo-3-(3-oxo-4H-pyrazino[2,3-b][1,4]oxazin-6-yl)oxazolidin-5-yl]ethylaminomethyl]indan-5-yl]acetamide]
0.125 (≈ 0.215 µM) | O=C1COc2ncc(N3CC4(CCN(CC5Cc6cc(NC(=O)[C@@H]7C[C@@H](O)CN7)cc(F)c6C5)CC4)OC3=O)nc2N1 (stereo partly drawn) [Example 42, (2S,4R)—N-[7-fluoro-2-[[2-oxo-3-(3-oxo-4H-pyrazino[2,3-b][1,4]oxazin-6-yl)-1-oxa-3,8-diazaspiro[4.5]decan-8-yl]methyl]indan-5-yl]-4-hydroxy-pyrrolidine-2-carboxamide]
0.25 (≈ 0.42 µM) | CN1C[C@H](O)C[C@H]1C(=O)Nc1cc(F)c2c(c1)CC(CN1CCC3(CC1)CN(c1cnc4c(n1)NC(=O)CO4)C(=O)O3)C2 (stereo partly drawn) [Example 64, (2S,4R)—N-[7-Fluoro-2-[[2-oxo-3-(3-oxo-4H-pyrazino[2,3-b][1,4]oxazin-6-yl)-1-oxa-3,8-diazaspiro[4.5]decan-8-yl]methyl]indan-5-yl]-4-hydroxy-1-methyl-pyrrolidine-2-carboxamide]
1 (≈ 1.69 µM) | C[C@H](C(=O)Nc1cc(C#N)c2c(c1)CC(O)(CN1CCC3(CC1)CN(c1cnc4c(n1)NC(=O)CO4)C(=O)O3)C2)N(C)C (stereo partly drawn) [Example 35, (2R)-N-[7-cyano-2-hydroxy-2-[[2-oxo-3-(3-oxo-4H-pyrazino[2,3-b][1,4]oxazin-6-yl)-1-oxa-3,8-diazaspiro[4.5]decan-8-yl]methyl]indan-5-yl]-2-(dimethylamino)propanamide]
0.5 (≈ 0.886 µM) | Cc1nc(NC(=O)[C@@H](C)N(C)C)cc2c1CC(CN1CCC3(CC1)CN(c1cnc4c(n1)NC(=O)CO4)C(=O)O3)C2 (stereo partly drawn) [Example 29, (2R)-2-(dimethylamino)-N-[1-methyl-6-[[2-oxo-3-(3-oxo-4H-pyrazino[2,3-b][1,4]oxazin-6-yl)-1-oxa-3,8-diazaspiro[4.5]decan-8-yl]methyl]-6,7-dihydro-5H-cyclopenta[c]pyridin-3-yl]propanamide]
0.25 (≈ 0.439 µM) | CN1C[C@H](O)C[C@H]1C(=O)Nc1cc(F)c2c(c1)CC(CNCCC1CN(c3cnc4c(n3)NC(=O)CO4)C(=O)O1)C2 (stereo partly drawn) [Example 49, (2S,4R)—N-[7-Fluoro-2-[[2-[2-oxo-3-(3-oxo-4H-pyrazino[2,3-b][1,4]oxazin-6-yl)oxazolidin-5-yl]ethylamino]methyl]indan-5-yl]-4-hydroxy-1-methyl-pyrrolidine-2-carboxamide]
0.125 (≈ 0.226 µM) | CC(C(=O)Nc1cc(F)c2c(c1)CC(CNCC[C@@H]1CN(c3cnc4c(n3)NC(=O)CO4)C(=O)O1)C2)N1CCC1 (stereo partly shown) [Example 16]
0.125 (≈ 0.226 µM) | CN1CCC[C@H]1C(=O)Nc1cc(F)c2c(c1)CC(CNCCC1CN(c3cnc4c(n3)NC(=O)CO4)C(=O)O1)C2 (stereo partly drawn) [Example 10, (2S)-N-[7-fluoro-2-[[2-[2-oxo-3-(3-oxo-4H-pyrazino[2,3-b][1,4]oxazin-6-yl)oxazolidin-5-yl]ethylamino]methyl]indan-5-yl]-1-methyl-pyrrolidine-2-carboxamide]
0.25 | O=C(O)C(F)(F)F.O=C1COc2ncc(N3CC4(CCN(CC5Cc6cc(NC(=O)[C@]7(CO)CCCN7)cc(F)c6C5)CC4)OC3=O)nc2N1 (stereo partly drawn) [Example 53, (2R)—N-[7-Fluoro-2-[[2-oxo-3-(3-oxo-4H-pyrazino[2,3-b][1,4]oxazin-6-yl)-1-oxa-3,8-diazaspiro[4.5]decan-8-yl]methyl]indan-5-yl]-2-(hydroxymethyl)pyrrolidine-2-carboxamide; 2,2,2-trifluoroacetic Acid]
4 (≈ 6.95 µM) | COC1(CNCC2CN(c3cnc4c(n3)NC(=O)CO4)C(=O)O2)Cc2c(F)cc(NC(=O)[C@@H](C)N(C)C)c(F)c2C1 (stereo partly shown) [Example 31]
0.25 (≈ 0.45 µM) | C[C@H](C(=O)Nc1cc(F)c2c(c1)CC(CN(C)CCC1CN(c3cnc4c(n3)NC(=O)CO4)C(=O)O1)C2)N(C)C (stereo partly drawn) [Example 58, (2R)-2-(Dimethylamino)-N-[7-fluoro-2-[[methyl-[2-[2-oxo-3-(3-oxo-4H-pyrazino[2,3-b][1,4]oxazin-6-yl)oxazolidin-5-yl]ethyl]amino]methyl]indan-5-yl]propanamide]
0.125 (≈ 0.226 µM) | CN1CCC[C@@H]1C(=O)Nc1cc(F)c2c(c1)CC(CNCCC1CN(c3cnc4c(n3)NC(=O)CO4)C(=O)O1)C2 (stereo partly drawn) [Example 14, (2R)-N-[7-fluoro-2-[[2-[2-oxo-3-(3-oxo-4H-pyrazino[2,3-b][1,4]oxazin-6-yl)oxazolidin-5-yl]ethylamino]methyl]indan-5-yl]-1-methyl-pyrrolidine-2-carboxamide]
0.5 (≈ 0.944 µM) | N[C@H](CO)C(=O)Nc1cc(F)c2c(c1)CC(CNCCC1CN(c3cnc4c(n3)NC(=O)CO4)C(=O)O1)C2 (stereo partly drawn) [Example 38, (2R)-2-amino-N-[7-fluoro-2-[[2-[2-oxo-3-(3-oxo-4H-pyrazino[2,3-b][1,4]oxazin-6-yl)oxazolidin-5-yl]ethylamino]methyl]indan-5-yl]-3-hydroxy-propanamide]
0.125 (≈ 0.215 µM) | O=C1COc2ncc(N3CC4(CCN(CC5Cc6cc(NC(=O)[C@H]7C[C@@H](O)CN7)cc(F)c6C5)CC4)OC3=O)nc2N1 (stereo partly drawn) [Example 55, (2R,4R)—N-[7-Fluoro-2-[[2-oxo-3-(3-oxo-4H-pyrazino[2,3-b][1,4]oxazin-6-yl)-1-oxa-3,8-diazaspiro[4.5]decan-8-yl]methyl]indan-5-yl]-4-hydroxy-pyrrolidine-2-carboxamide]
0.5 (≈ 0.928 µM) | Cc1nc(NC(=O)[C@@H](C)N(C)C)cc2c1CC(CNCCC1CN(c3cnc4c(n3)NC(=O)CO4)C(=O)O1)C2 (stereo partly drawn) [Example 28, (2R)-2-(dimethylamino)-N-[1-methyl-6-[[2-[2-oxo-3-(3-oxo-4H-pyrazino[2,3-b][1,4]oxazin-6-yl)oxazolidin-5-yl]ethylamino]methyl]-6,7-dihydro-5H-cyclopenta[c]pyridin-3-yl]propanamide]
1 | Cl.N[C@@]1(C(=O)Nc2cc(F)c3c(c2)CC(CNCCC2CN(c4cnc5c(n4)NC(=O)CO5)C(=O)O2)C3)CCOC1 (stereo partly drawn) [Example 41, (3S)-3-amino-N-[7-fluoro-2-[[2-[2-oxo-3-(3-oxo-4H-pyrazino[2,3-b][1,4]oxazin-6-yl)oxazolidin-5-yl]ethylamino]methyl]indan-5-yl]tetrahydrofuran-3-carboxamide; hydrochloride]
0.5 (≈ 0.9 µM) | O=C1COc2ncc(N3CC(CCNCC4Cc5cc(NC(=O)[C@@H]6C[C@@H](O)CN6)cc(F)c5C4)OC3=O)nc2N1 (stereo partly drawn) [Example 37, (2S,4R)-N-[7-fluoro-2-[[2-[2-oxo-3-(3-oxo-4H-pyrazino[2,3-b][1,4]oxazin-6-yl)oxazolidin-5-yl]ethylamino]methyl]indan-5-yl]-4-hydroxy-pyrrolidine-2-carboxamide]
0.25 | N[C@]1(C(=O)Nc2cc(F)c3c(c2)CC(CNCCC2CN(c4cnc5c(n4)NC(=O)CO5)C(=O)O2)C3)CCOC1.O=C(O)C(F)(F)F (stereo partly drawn) [Example 40, (3R)-3-amino-N-[7-fluoro-2-[[2-[2-oxo-3-(3-oxo-4H-pyrazino[2,3-b][1,4]oxazin-6-yl)oxazolidin-5-yl]ethylamino]methyl]indan-5-yl]tetrahydrofuran-3-carboxamide; 2,2,2-trifluoroacetic acid]
0.5 (≈ 0.894 µM) | C[C@H](C(=O)Nc1cc(F)c2c(c1)C(F)C(CNCC[C@@H]1CN(c3cnc4c(n3)NC(=O)CO4)C(=O)O1)C2)N(C)C (stereo partly drawn) [Example 67, (2R)—N-[3,7-Difluoro-2-[[2-[(5R)-2-oxo-3-(3-oxo-4H-pyrazino[2,3-b][1,4]oxazin-6-yl)oxazolidin-5-yl]ethylamino]methyl]indan-5-yl]-2-(dimethylamino)propanamide]

same assay, conditions: strain Escherichia coli ATCC 25922; broth microdilution per CLSI M07-A10; 18-24 hours at 35±2° C.; lowest concentration for complete growth inhibition

Escherichia coli growth inhibition MIC [µg/mL] | SMILES
0.5 | C[C@@]1(C(=O)Nc2cc(F)c3c(c2)CC(CN2CCC4(CC2)CN(c2cnc5c(n2)NC(=O)CO5)C(=O)O4)C3)C[C@@H](O)CN1 (single isomer, unassigned) [Example 73]
